One may read the MIC as the lowest concentration that inhibits growth of the organism.

Holding throughout (format): functional
In assay [1] the test system is Pseudomonas aeruginosa. Nature of the assay: Antibacterial activity against Pseudomonas aeruginosa assessed as bacterial growth inhibition by broth dilution method. A general note: Dilution methods test growth across graded concentrations, often in twofold steps.
Assay [2] has as its system Klebsiella pneumoniae. Nature of the assay: Antibacterial activity against Klebsiella pneumoniae assessed as bacterial growth inhibition by broth dilution method.
In another assay the test system is Bacillus subtilis. As to the kind of experiment: Antibacterial activity against Bacillus subtilis assessed as bacterial growth inhibition incubated for 24 hrs by spectrophotometry.
Assay [3] concerns Escherichia coli. As to the kind of experiment: Antibacterial activity against Escherichia coli assessed as bacterial growth inhibition incubated for 24 hrs by spectrophotometry.
The subject of assay [4] is Pseudomonas aeruginosa. Nature of the assay: Antibacterial activity against Pseudomonas aeruginosa assessed as bacterial growth inhibition incubated for 24 hrs by spectrophotometry.
Assay [5] concerns Staphylococcus aureus. Nature of the assay: Antibacterial activity against Staphylococcus aureus assessed as bacterial growth inhibition incubated for 24 hrs by spectrophotometry.
In another assay the test system is Enterococcus faecalis. Nature of the assay: Antibacterial activity against Enterococcus faecalis assessed as bacterial growth inhibition.
In assay [6] the test system is Staphylococcus aureus. Nature of the assay: Antibacterial activity against methicillin-sensitive Staphylococcus aureus assessed as bacterial growth inhibition.
For assay [7], the system named is Escherichia coli. As to the kind of experiment: Antibacterial activity against Escherichia coli producing extended spectrum beta-lactamases assessed as bacterial growth inhibition.
For assay [8], the system named is Klebsiella pneumoniae. Nature of the assay: Antibacterial activity against Klebsiella pneumoniae assessed as bacterial growth inhibition.
For another assay, the system named is Klebsiella aerogenes. Nature of the assay: Antibacterial activity against Enterobacter aerogenes assessed as bacterial growth inhibition.
Assay [9] has as its system Staphylococcus epidermidis. As to the kind of experiment: Antibacterial activity against methicillin-sensitive Staphylococcus epidermidis assessed as bacterial growth inhibition.
A further assay deals with Enterobacter cloacae. Nature of the assay: Antibacterial activity against Enterobacter cloacae assessed as bacterial growth inhibition.
For assay [10], the system named is Pseudomonas aeruginosa. Nature of the assay: Antibacterial activity against Pseudomonas aeruginosa assessed as bacterial growth inhibition.
The subject of the next assay is Providencia rettgeri. Nature of the assay: Antibacterial activity against Providencia rettgeri assessed as bacterial growth inhibition.
Another assay deals with Proteus vulgaris. Nature of the assay: Antibacterial activity against Proteus vulgaris assessed as bacterial growth inhibition.
Another assay deals with Enterococcus faecium. As to the kind of experiment: Antibacterial activity against Enterococcus faecium assessed as bacterial growth inhibition.
Assay [11] deals with Escherichia coli. As to the kind of experiment: Antibacterial activity against Escherichia coli assessed as bacterial growth inhibition.
For assay [12], the system named is Klebsiella pneumoniae. As to the kind of experiment: Antibacterial activity against Klebsiella pneumoniae producing extended spectrum beta-lactamases assessed as bacterial growth inhibition.
Assay [13] has as its system Escherichia coli. As to the kind of experiment: Antibacterial activity against multidrug-resistant Escherichia coli assessed as bacterial growth inhibition incubated for 24 hrs by […] method. Background: A growth-free zone around the sample is the usual read-out of agar diffusion tests.
The subject of assay [14] is Staphylococcus aureus. Nature of the assay: Antibacterial activity against Staphylococcus aureus clinical isolate assessed as bacterial growth inhibition incubated for 24 hrs by disk diffusion method.
For assay [15], the system named is Escherichia coli. As to the kind of experiment: Antibacterial activity against Escherichia coli clinical isolate assessed as bacterial growth inhibition incubated for 24 hrs by disk diffusion method.
Assay [16] relates to Staphylococcus aureus. Nature of the assay: Antibacterial activity against Staphylococcus aureus assessed as bacterial growth inhibition by broth microdilution method.
For assay [17], the system named is Escherichia coli. Nature of the assay: Antibacterial activity against Escherichia coli assessed as bacterial growth inhibition by broth microdilution method.
Assay [18] has as its system Klebsiella pneumoniae. As to the kind of experiment: Antibacterial activity against Klebsiella pneumoniae assessed as bacterial growth inhibition by broth microdilution method.
The test system of assay [19] is Staphylococcus aureus. As to the kind of experiment: Antibacterial activity against Staphylococcus aureus ATCC 43300 assessed as bacterial growth inhibition measured for 5 to 20 mins by broth dilution method. The note with it: time 5-20 min.
The subject of assay [20] is Pseudomonas aeruginosa. As to the kind of experiment: Antibacterial activity against Pseudomonas aeruginosa ATCC 10145 assessed as bacterial growth inhibition measured for 5 to 20 mins by broth dilution method. The note with it: time 5-20 min.

Each structure is given as a SMILES string. In brackets after ≈: the same amount, converted by molar mass. Where only a bound is given, the exact number is not on record here.

`CC1(C)S[C@@H]2[C@H](NC(=O)Cc3ccccc3)C(=O)N2[C@H]1C(=O)O` [PENICILLIN G]: the MIC stood at 18.8 µg/mL (≈ 56.1 µM) in the assay on Pseudomonas aeruginosa [1] and 9.37 µg/mL (≈ 28 µM) with Klebsiella pneumoniae [2].

As to `C[C@H]1COc2c(N3CCN(C)CC3)c(F)cc3c(=O)c(C(=O)O)cn1c23` [LEVOFLOXACIN ANHYDROUS], the MIC in the assay on Bacillus subtilis, with Escherichia coli [3], in the assay on Pseudomonas aeruginosa [4] and with Staphylococcus aureus [5] was 33.6 µg/mL (≈ 93 µM) throughout.

For `CCO/N=C1\C(=O)N(Cc2cn(CC(=O)N3CCC[C@@H]4CN(c5c(F)cc6c(=O)c(C(=O)O)cn(C7CC7)c6c5OC)C[C@@H]43)nn2)c2ccccc21`, the MIC (in the assay with Enterococcus faecalis; in the assay on Staphylococcus aureus [6]; in the assay with Escherichia coli [7]; in the assay on Klebsiella pneumoniae [8]; in the assay with Klebsiella aerogenes; in [9]) was no more than 0.03 µg/mL in each case. The MIC in the assay with Enterobacter cloacae, with Pseudomonas aeruginosa [10], in the assay with Providencia rettgeri, in the assay with Proteus vulgaris, with Enterococcus faecium and in the assay on Escherichia coli [11] was no more than 0.03 µg/mL throughout. Also, the minimal inhibitory concentration (MIC) in the assay with Klebsiella pneumoniae [12] is no more than 0.03 µg/mL.

`CO/N=C1\C(=O)N(Cc2cn(CC(=O)N3CCC[C@@H]4CN(c5c(F)cc6c(=O)c(C(=O)O)cn(C7CC7)c6c5OC)C[C@@H]43)nn2)c2ccc(C)cc21`: the minimal inhibitory concentration (MIC) (in the assay with Enterococcus faecalis; in the assay with Staphylococcus aureus [6]; with Escherichia coli [7]; with Klebsiella pneumoniae [8]; in the assay with Klebsiella aerogenes; in [9]) was no more than 0.03 µg/mL in each case. For the same molecule, the minimal inhibitory concentration (MIC) in the assay on Enterobacter cloacae, in the assay with Pseudomonas aeruginosa [10], in the assay on Providencia rettgeri, in the assay with Proteus vulgaris, with Enterococcus faecium and in the assay with Escherichia coli [11] was no more than 0.03 µg/mL in each case. Further, in the assay on Klebsiella pneumoniae [12], the minimal inhibitory concentration (MIC) was no more than 0.03 µg/mL.

As for `c1ccc(-n2cc(COc3ccc(-c4nc5ccccc5s4)cc3)nn2)cc1`, in the assay with Escherichia coli [13], the MIC is 7.99 µg/mL (≈ 20.8 µM).

As for `Cc1ccc2c(c1)c(=O)c1ccccc1n2Cc1cn(-c2ccccc2C)nn1`, the MIC in the assay with Staphylococcus aureus [14] and in the assay on Escherichia coli [15] was 10.1 µg/mL (≈ 26.5 µM) in each case.

`CC1(C)S[C@@H]2[C@H](NC(=O)[C@H](N)c3ccc(O)cc3)C(=O)N2[C@H]1C(=O)O` [AMOXICILLIN]: the minimum inhibitory concentration (MIC) in the assay with Staphylococcus aureus [16], with Escherichia coli [17] and in the assay with Klebsiella pneumoniae [18] was 25 µg/mL (≈ 68.4 µM) each time.

On to `Cc1c(C(=O)/C=C/c2ccc(Cl)cc2)nnn1-c1ccc(Cl)c(Cl)c1`, for which the minimum inhibitory concentration (MIC) in the assay with Bacillus subtilis, in the assay on Escherichia coli [3], with Pseudomonas aeruginosa [4] and in the assay on Staphylococcus aureus [5] was 1.3 µg/mL (≈ 3.31 µM) in each case.

Consider `COC(=O)[C@H](Cc1cn(Cc2cn(-c3ccccc3[N+](=O)[O-])nn2)c2ccccc12)NC(=O)[C@@H](C)c1ccc2cc(OC)ccc2c1`, for which the minimal inhibitory concentration (MIC) with Staphylococcus aureus [16], with Escherichia coli [17] and with Klebsiella pneumoniae [18] was 25 µg/mL (≈ 39.5 µM) each time.

Take `COCCOCCOCCOC(=O)c1cccc(-n2cc(CO[C@@H]3O[C@H](COC(C)=O)[C@H](OC(C)=O)[C@H](OC(C)=O)[C@H]3OC(C)=O)nn2)c1`: the MIC with Staphylococcus aureus [19] and in the assay with Pseudomonas aeruginosa [20] was 5 µg/mL (≈ 7.19 µM) in each case.

(Values after ChEMBL document CHEMBL5344406, “1,2,3-Triazole-containing hybrids with potential antibacterial activity against ESKAPE pathogens” (2022).)
